Measured values as given in patent publication US11912693B2, “Compounds for modulating S1P1 activity and methods of using the same” (TREVENA, INC., priority 2017, dated 2024).

System: oxaliplatin induced peripheral neuropathy
Assay: Reversal of allodynia induced by oxaliplatin in mice (von Frey frequency method)
Format: in vivo, c57bl/6 mice
Details: tested 30 min after dosing
Experimental: Compounds were tested for efficacy in mouse models of chemotherapy induced peripheral neuropathy. […] For these studies […]/6 mice are habituated to the test environment and baseline measurements of pain sensitivity are assessed. To determine mechanical responses, the threshold for responses to punctate mechanical stimuli (mechanical hyperalgesia) was tested according to the frequency method. In brief, the plantar surface of the animal hindpaw was stimulated with a single von Frey monofilament (0.4 g) for approximately 1-2 seconds. If there was a withdrawal response, it was recorded as a positive response. A response was defined as a lifting or shaking of the paw upon stimulation. This was repeated ten times for each mouse. The final measurement for each mouse is the % non-response to stimulation for the ten trials. The % non-response to stimulation is converted to a % MPE. For paclitaxel induced peripheral neuropathy, a series of injections of PAC (6 mg/kg, i.p.) on days 1, 3, 5 and 7 is used to induce peripheral neuropathy. After approximately 14 days from the initiation of PAC injections, animals are re-assessed for mechanical sensitivity. […] On test day animals are dosed with compounds either subcutaneously or orally and tested for mechanical response by the frequency method either 30 min (s.c.) or 60 min (p.o.) after drug administration. Data is presented as a % MPE. For oxaliplatin induced peripheral neuropathy, a series of injections of OXA (4 mg/kg, i.p.) on days 1-5 is used to induce peripheral neuropathy. After approximately 14 days from the initiation of PAC injections, animals are re-assessed for mechanical sensitivity. […] On test day animals are dosed with compounds subcutaneously and tested for mechanical response by the frequency method 30 min after drug administration. Data is presented as a % MPE. One or more of the compounds show reversal of chemotherapeutic induced peripheral neuropathy.

Q: For COc1ccccc1-c1nc(-c2ccc3c(c2)nnn3C(C)C)no1 [Compound 287, 3-(1-isopropyl-1H-benzo[d][1,2,3]triazol-5-yl)-5-(2-methoxyphenyl)-1,2,4-oxadiazole], which “Screen @ 3 mg/kg sc (% MPE)” value is on record?
A: >50 % MPE
